This passage reports MIC results from ChEMBL document CHEMBL4825698, “Identification of novel benzothiopyranones with ester and amide motifs derived from active metabolite as promising leads against Mycobacterium tuberculosis” (Eur J Med Chem, 2021).

Molecules are shown by their SMILES. Converted amounts (≈) assume the structure as drawn. Some results are limits rather than exact numbers.

Assay [1] concerns Mycobacterium tuberculosis. As to the kind of experiment: Antitubercular activity against isoniazid,streptomycin,rifampicin,ethambutol,para-aminosalicylate,prothionamide,capreomycin-resistant Mycobacterium tuberculosis clinical isolate 14862 assessed as bacterial growth inhibition incubated for 7 days by MABA assay. It is filed as functional. The note with it: clinical isolate 14862, 168 h, time 7 day.

Assay [2] relates to Mycobacterium tuberculosis. As to the kind of experiment: Antitubercular activity against isoniazid,streptomycin,rifampicin,ethambutol, rifabutin, para-aminosalicylat, ofloxacin-resistant Mycobacterium tuberculosis clinical isolate 13946 assessed as inhibition of bacterial growth incubated for 7 days by MABA assay. It is filed as functional. The settings on record: clinical isolate 13946, 168 h, time 7 day.

As to `O=C(OC1CCC(CN2CCN(c3cc(=O)c4cc(C(F)(F)F)cc([N+](=O)[O-])c4s3)CC2)CC1)c1ccccc1` (centres undefined), the MIC turned out to be 0.162 mg/L (≈ 0.281 µM) in assay [1] and 0.216 mg/L (≈ 0.375 µM) in assay [2].
For the molecule `CS(=O)(=O)OC1CCC(CN2CCN(c3cc(=O)c4cc(C(F)(F)F)cc([N+](=O)[O-])c4s3)CC2)CC1` (centres undefined), the MIC was 0.001 mg/L (≈ 0.00182 µM) in assay [1] and < 0.001 mg/L in assay [2].
For `CC(=O)OC1CCC(CN2CCN(c3cc(=O)c4cc(C(F)(F)F)cc([N+](=O)[O-])c4s3)CC2)CC1` (centres undefined) the same measures were 0.062 mg/L (≈ 0.121 µM) and 0.062 mg/L (≈ 0.121 µM).
As to `O=c1cc(N2CCN(CC3CCC(OS(=O)(=O)c4ccccc4)CC3)CC2)sc2c([N+](=O)[O-])cc(C(F)(F)F)cc12` (centres undefined), the MIC in assay [1] amounted to 0.002 mg/L (≈ 0.00327 µM); in assay [2] it was 0.001 mg/L (≈ 0.00163 µM).
`O=c1cc(N2CCN(CC3CCC(OS(=O)(=O)c4cccnc4)CC3)CC2)sc2c([N+](=O)[O-])cc(C(F)(F)F)cc12` (centres undefined): the minimum inhibitory concentration (MIC) in assay [1] and in assay [2] was < 0.001 mg/L in each case.
Regarding `NNC(=O)c1ccncc1` [ISONIAZID], the MIC in assay [1] and in assay [2] was > 10 mg/L each time.
For `CO[C@H]1/C=C/O[C@@]2(C)Oc3c(C)c(O)c4c(O)c(c(/C=N/N5CCN(C)CC5)c(O)c4c3C2=O)NC(=O)/C(C)=C\C=C\[C@H](C)[C@H](O)[C@@H](C)[C@@H](O)[C@@H](C)[C@H](OC(C)=O)[C@@H]1C` [RIFAMPIN], the MIC in assay [1] and in assay [2] was > 10 mg/L each time.
